# Read-outs that look alike come from different tables or passages of the source. Where a SMILES comes first, the peptide text is derived from it. Where no end group is shown, it is not given here. Side-chain parts run from the residue outwards. [ ]: non-standard residue; d: D form. αMeF = C[C@](N)(Cc1ccccc1)C(=O)O; Nle = CCCC[C@H](N)C(=O)O; Aib = CC(C)(N)C(=O)O; Mal = maleimide
# Tests used:
# hGLP-1R = molecular target: T1, hGLP-1R (Homo sapiens, UniProt P43220); assay: cAMP functional assay, cells expressing human GLP-1 receptor (primary assay); assay type: cell-based; settings: n = 2
# T1 construct: expressed in transfected cells
# T1 sequence (P43220 24-463): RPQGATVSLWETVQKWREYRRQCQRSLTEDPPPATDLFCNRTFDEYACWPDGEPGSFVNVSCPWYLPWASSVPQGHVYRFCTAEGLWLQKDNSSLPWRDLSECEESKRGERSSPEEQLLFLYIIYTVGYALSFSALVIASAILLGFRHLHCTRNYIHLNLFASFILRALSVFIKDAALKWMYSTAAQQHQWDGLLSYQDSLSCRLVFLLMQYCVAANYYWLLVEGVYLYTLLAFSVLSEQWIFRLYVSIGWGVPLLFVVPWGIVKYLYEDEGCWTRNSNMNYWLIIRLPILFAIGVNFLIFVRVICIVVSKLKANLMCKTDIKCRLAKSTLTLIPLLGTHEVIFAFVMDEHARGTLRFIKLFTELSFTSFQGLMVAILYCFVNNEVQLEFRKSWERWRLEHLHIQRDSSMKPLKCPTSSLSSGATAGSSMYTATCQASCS
# Method: (§1) The biological activities/receptor potencies of the synthetic GLP-1 peptides described herein are suitably tested for biological activity, e.g., stimulation of one or more cellular receptor responses. Stable cell lines expressing human, mouse, rat, or dog GLP-1 receptor (GLP-1R), glucagon receptor (GCGR) or glucose-dependent insulinotropic peptide (gastric inhibitory polypeptide) receptor (GIPR) are generated in HEK293 cells or CHO cells by standard methods.
# (§2) cAMP assays were performed using “assay buffer”: Assay Buffer: 0.1% BSA (Sigma #A3059) in HBSS (Sigma #H8264) with 25 mM HEPES, pH 7.4 and containing 0.5 mM IBMX (Sigma #17018).
# (§3) Low protein binding 384-well plates (Greiner #781280) are used to perform eleven 1 in 5 serial dilutions of test samples which are made in assay buffer. All sample dilutions are made in duplicate.
# (§4) A frozen cryo-vial of cells expressing the receptor of interest is thawed rapidly in a water-bath, transferred to pre-warmed assay buffer and spun at 240× g for 5 minutes. Cells are re-suspended in assay buffer at a batch-dependent optimized concentration (e.g. hGCGR cells at 2×10^5 cells/ml, hGLP-1R and hGIPR cells at 1×10^5 cells /ml).
# (§5) From the dilution plate, a 5 μL replica is stamped onto a black shallow-well u-bottom 384-well plate (Corning #3676). To this, 5 μL cell suspension is added and the plates incubated at room temperature for 30 minutes.
# (§6) cAMP levels are measured using a commercially available cAMP dynamic 2 HTRF kit (Cisbio, Cat #62AM4PEJ), following the two step protocol as per manufacturer's recommendations. In brief; anti-cAMP cryptate (donor fluorophore) and cAMP-d2 (acceptor fluorophore) are made up separately by diluting each 1/20 in conjugate & lysis buffer provided in the kit. 5 μL anti-cAMP cryptate is added to all wells of the assay plate, and 5 μL cAMP-d2 is added to all wells except non-specific binding (NSB) wells, to which conjugate and lysis buffer are added. Plates are incubated at room temperature for one hour and then read on an Envision (Perkin Elmer) using excitation wavelength of 320 nm and emission wavelengths of 620 nm & 665 nm. EC50 values of the synthetic peptides determined in cAMP assays are then determined.
# hGIP-R = molecular target: T2, hGIP-R (Homo sapiens, UniProt P48546); assay: cAMP functional assay, cells expressing human GIP receptor (primary assay); assay type: cell-based; settings: n = 2
# T2 construct: expressed in transfected cells
# T2 sequence (P48546 22-466): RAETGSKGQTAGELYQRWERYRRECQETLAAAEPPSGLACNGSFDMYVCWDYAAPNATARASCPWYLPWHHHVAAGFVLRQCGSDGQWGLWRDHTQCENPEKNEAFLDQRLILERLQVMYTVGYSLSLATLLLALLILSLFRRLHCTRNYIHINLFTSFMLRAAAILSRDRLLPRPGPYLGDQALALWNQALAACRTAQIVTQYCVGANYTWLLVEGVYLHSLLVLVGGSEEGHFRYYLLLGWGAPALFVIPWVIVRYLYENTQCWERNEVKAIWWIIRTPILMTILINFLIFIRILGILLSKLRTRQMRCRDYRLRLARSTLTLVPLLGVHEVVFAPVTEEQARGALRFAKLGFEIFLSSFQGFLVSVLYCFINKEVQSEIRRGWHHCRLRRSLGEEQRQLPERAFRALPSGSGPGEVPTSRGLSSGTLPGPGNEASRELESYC
# Method: as §1, §2, §3, §4, §5, §6
EC50 (hGLP-1R),EC50 (hGIP-R),EC50 (hGLP-1R; read-out: Primary assay EC50 (n = 2) hGLP-1R),Compound
102 nM,102 nM,,"CC[C@H](C)[C@H](NC(=O)C(C)(C)NC(=O)[C@H](CCC(=O)O)NC(=O)[C@H](CCCCN)NC(=O)[C@H](C)NC(=O)[C@H](C)NC(=O)[C@H](CCC(N)=O)NC(=O)CNC(=O)[C@H](CCC(=O)O)NC(=O)[C@H](CC(C)C)NC(=O)C(C)(C)NC(=O)[C@H](CO)NC(=O)[C@H](CO)NC(=O)[C@@H](NC(=O)[C@H](CC(=O)O)NC(=O)[C@H](CO)NC(=O)[C@@H](NC(=O)C(C)(C)NC(=O)[C@@H](NC(=O)CNC(=O)[C@H](CCC(=O)O)NC(=O)C(C)(C)NC(=O)[C@@H](N)Cc1c[nH]cn1)[C@@H](C)O)[C@@H](C)O)C(C)C)C(=O)N[C@@H](C)C(=O)NC(C)(C)C(=O)N[C@@H](CC(C)C)C(=O)N[C@H](C(=O)N[C@@H](CCCCN)C(=O)NCC(=O)N[C@@H](CCCNC(=N)N)C(N)=O)C(C)C [SEQ ID NO: 16, H-(Aib)^2-EGT^5-(Aib)^6-TSDV^10 SS-(Aib)^13-LE^15 GQAAK^20 E-(Aib)^22-IA-(Aib)^25 LVKGR^30] (H-H[Aib]EGT[Aib]TSDVSS[Aib]LEGQAAKE[Aib]IA[Aib]LVKGR-NH2)"
3.48 nM,102 nM,,"CCCC[C@H](NC(=O)[C@H](C)NC(=O)[C@@H](NC(=O)[C@H](CCCC)NC(=O)[C@H](CCC(=O)O)NC(=O)[C@H](CCCCN)NC(=O)[C@H](C)NC(=O)[C@H](C)NC(=O)[C@H](CCC(N)=O)NC(=O)CNC(=O)[C@H](CCC(=O)O)NC(=O)[C@H](CC(C)C)NC(=O)[C@H](CCCC)NC(=O)[C@H](CO)NC(=O)[C@H](CO)NC(=O)[C@@H](NC(=O)[C@H](CC(=O)O)NC(=O)[C@H](CO)NC(=O)[C@@H](NC(=O)[C@H](CCCC)NC(=O)[C@@H](NC(=O)CNC(=O)[C@H](CCC(=O)O)NC(=O)C(C)(C)NC(=O)[C@@H](N)Cc1c[nH]cn1)[C@@H](C)O)[C@@H](C)O)C(C)C)[C@@H](C)CC)C(=O)N[C@@H](CC(C)C)C(=O)N[C@H](C(=O)N[C@@H](CCCCN)C(=O)NCC(=O)N[C@@H](CCCNC(=N)N)C(N)=O)C(C)C [SEQ ID NO: 17, H-(Aib)^2-EGT^5-(Nle)^6-TSDV^10 SS-(Nle)^13-LE^15 GQAAK^20 E-(Nle)^22-IA-(Nle)^25 LVKGR^30] (H-H[Aib]EGT[Nle]TSDVSS[Nle]LEGQAAKE[Nle]IA[Nle]LVKGR-NH2)"
0.0163 nM,102 nM,,"CC[C@H](C)[C@H](NC(=O)[C@H](Cc1ccccc1)NC(=O)[C@H](CCC(=O)O)NC(=O)[C@H](CCCCN)NC(=O)[C@H](C)NC(=O)[C@H](C)NC(=O)[C@H](CCC(N)=O)NC(=O)CNC(=O)[C@H](CCC(=O)O)NC(=O)[C@H](CC(C)C)NC(=O)[C@H](Cc1ccccc1)NC(=O)[C@H](CO)NC(=O)[C@H](CO)NC(=O)[C@@H](NC(=O)[C@H](CC(=O)O)NC(=O)[C@H](CO)NC(=O)[C@@H](NC(=O)[C@H](Cc1ccccc1)NC(=O)[C@@H](NC(=O)CNC(=O)[C@H](CCC(=O)O)NC(=O)C(C)(C)NC(=O)[C@@H](N)Cc1c[nH]cn1)[C@@H](C)O)[C@@H](C)O)C(C)C)C(=O)N[C@@H](C)C(=O)N[C@@H](Cc1ccccc1)C(=O)N[C@@H](CC(C)C)C(=O)N[C@H](C(=O)N[C@@H](CCCCN)C(=O)NCC(=O)N[C@@H](CCCNC(=N)N)C(N)=O)C(C)C [SEQ ID NO: 18, H-(Aib)^2-EGT^5-FTSDV^10 SS-(F)^13-LE^15 GQAAK^20 EFIA-(F)^25 LVKGR^30] (H-H[Aib]EGTFTSDVSSFLEGQAAKEFIAFLVKGR-NH2)"
,,0.0278 nM,H-(Aib)^2-EG-(S)^5-(α-MeF)^6-TSDV^10 SS-(α-MeF)^13-LE^15 GQAAK^20 E-(α-MeF)^22-IA-(α-MeF)^25 LVKG-(G)^30-(SSG)3-(Cys-Mal-mPEG)[40 kD] (H[Aib]EGS[αMeF]TSDVSS[αMeF]LEGQAAKE[αMeF]IA[αMeF]LVKGGSSGSSGSSGC([Mal-mPEG 40 kDa]); not fully specified (C-terminus); printed as H-(Aib)^2-EG-(S)^5-(α-MeF)^6-TSDV^10 SS-(α-MeF)^13-LE^15 GQAAK^20 E-(α-MeF)^22-IA-(α-MeF)^25 LVKG-(G)^30-(SSG)3-(Cys-Mal-mPEG)[40 kD]) [SEQ ID NO: 50]

# Reference: US20160318987A1 (MEDIMMUNE LIMITED, priority 2013, published 2016)
